Measured values from patent US9951028B2, “Agricultural chemicals” (REDAG CROP PROTECTION LTD, priority 2013, dated 2018).

Assays:
Experiment in all cases: Herbicidal efficacy screen, potter tower spray, necrosis assessed
Type in all cases: in vivo
[1] = tested on: common chickweed, Stellaria media
Procedure: (§1) Compounds 22, 23 and 24 were screened for herbicidal efficacy against target plants: garden cress, Lepidium sativum, common chickweed, Stellaria media, and white mustard […] alba Plants were obtained as seeds and were grown to the 2-4 true leaf stage. Plants were grown under laboratory conditions, individually in seed trays. Each plant (in an approximately 3 cm diameter plug) was then detached from the tray for spraying. The compounds were screened at a range of five concentrations, diluted in acetone and TweenTM. A carrier only control was also conducted. Treatments were applied directly onto the plants, using a potter tower, at a specified application rate. One plant of each species was sprayed using a potter tower. The 3 different types of plants were placed on a 10 cm diameter platform directly beneath the potter sprayer and sprayed simultaneously. The growth of the plants and any Phytotoxicity effects were then assessed at intervals over 21 days, according to EPPO guideline PP1/135. Five replicas were performed for each treatment, for each species. In the tables below C represents a percentage increase in necrosis relative to the control of 0.1-50; B represents a percentage inhibition of 50-80; and A represents a percentage inhibition of 80-100.

[2] = tested on: white mustard Sinapsis alba
Procedure: as §1

[3] = tested on: garden cress, Lepidium sativum
Procedure: as §1

[4] = 12.5 g/ha, day 1 post application
[5] = 12.5 g/ha, day 2 post application
[6] = 12.5 g/ha, day 3 post application
[7] = 12.5 g/ha, day 4 post application
[8] = 12.5 g/ha, day 5 post application
[9] = 12.5 g/ha, day 7 post application
[10] = 12.5 g/ha, day 10 post application
[11] = 25 g/ha, day 1 post application
[12] = 25 g/ha, day 2 post application
[13] = 25 g/ha, day 3 post application
[14] = 25 g/ha, day 4 post application
[15] = 25 g/ha, day 5 post application
[16] = 25 g/ha, day 7 post application
[17] = 25 g/ha, day 10 post application
[18] = 50 g/ha, day 1 post application
[19] = 50 g/ha, day 2 post application
[20] = 50 g/ha, day 3 post application
[21] = 50 g/ha, day 4 post application
[22] = 50 g/ha, day 5 post application
[23] = 50 g/ha, day 7 post application
[24] = 50 g/ha, day 10 post application
[25] = 100 g/ha, day 1 post application
[26] = 100 g/ha, day 2 post application
[27] = 100 g/ha, day 3 post application
[28] = 100 g/ha, day 4 post application
[29] = 100 g/ha, day 5 post application
[30] = 100 g/ha, day 7 post application
[31] = 100 g/ha, day 10 post application
[32] = 200 g/ha, day 1 post application
[33] = 200 g/ha, day 2 post application
[34] = 200 g/ha, day 3 post application
[35] = 200 g/ha, day 4 post application
[36] = 200 g/ha, day 5 post application
[37] = 200 g/ha, day 7 post application
[38] = 200 g/ha, day 10 post application

SMILES: CC(C)N(C)S(=O)(=O)NCc1cc(-n2c(=O)cc(C(F)(F)F)n(C)c2=O)c(F)cc1Cl [Compound 23, 1-[4-Chloro-2-fluoro-5-[[(isopropyl(methyl)sulfamoyl)amino]methyl]phenyl]-3-methyl-2,6-dioxo-4-(trifluoromethyl)pyrimidine]
- Average of necrosis [1, 4]: C (C represents a percentage increase in necrosis relative to the control of 0.1-50)
- Average of necrosis [1, 5]: C (C represents a percentage increase in necrosis relative to the control of 0.1-50)
- Average of necrosis [1, 6]: C (C represents a percentage increase in necrosis relative to the control of 0.1-50)
- Average of necrosis [1, 7]: C (C represents a percentage increase in necrosis relative to the control of 0.1-50)
- Average of necrosis [1, 8]: B (B represents a percentage inhibition of 50-80)
- Average of necrosis [1, 9]: B (B represents a percentage inhibition of 50-80)
- Average of necrosis [1, 10]: A (A represents a percentage inhibition of 80-100)
- Average of necrosis [1, 11]: C (C represents a percentage increase in necrosis relative to the control of 0.1-50)
- Average of necrosis [1, 12]: C (C represents a percentage increase in necrosis relative to the control of 0.1-50)
- Average of necrosis [1, 13]: C (C represents a percentage increase in necrosis relative to the control of 0.1-50)
- Average of necrosis [1, 14]: C (C represents a percentage increase in necrosis relative to the control of 0.1-50)
- Average of necrosis [1, 15]: B (B represents a percentage inhibition of 50-80)
- Average of necrosis [1, 16]: B (B represents a percentage inhibition of 50-80)
- Average of necrosis [1, 17]: B (B represents a percentage inhibition of 50-80)
- Average of necrosis [1, 18]: C (C represents a percentage increase in necrosis relative to the control of 0.1-50)
- Average of necrosis [1, 19]: C (C represents a percentage increase in necrosis relative to the control of 0.1-50)
- Average of necrosis [1, 20]: C (C represents a percentage increase in necrosis relative to the control of 0.1-50)
- Average of necrosis [1, 21]: C (C represents a percentage increase in necrosis relative to the control of 0.1-50)
- Average of necrosis [1, 22]: B (B represents a percentage inhibition of 50-80)
- Average of necrosis [1, 23]: B (B represents a percentage inhibition of 50-80)
- Average of necrosis [1, 24]: B (B represents a percentage inhibition of 50-80)
- Average of necrosis [1, 25]: C (C represents a percentage increase in necrosis relative to the control of 0.1-50)
- Average of necrosis [1, 26]: C (C represents a percentage increase in necrosis relative to the control of 0.1-50)
- Average of necrosis [1, 27]: C (C represents a percentage increase in necrosis relative to the control of 0.1-50)
- Average of necrosis [1, 28]: C (C represents a percentage increase in necrosis relative to the control of 0.1-50)
- Average of necrosis [1, 29]: B (B represents a percentage inhibition of 50-80)
- Average of necrosis [1, 30]: B (B represents a percentage inhibition of 50-80)
- Average of necrosis [1, 31]: A (A represents a percentage inhibition of 80-100)
- Average of necrosis [1, 32]: C (C represents a percentage increase in necrosis relative to the control of 0.1-50)
- Average of necrosis [1, 33]: C (C represents a percentage increase in necrosis relative to the control of 0.1-50)
- Average of necrosis [1, 34]: C (C represents a percentage increase in necrosis relative to the control of 0.1-50)
- Average of necrosis [1, 35]: C (C represents a percentage increase in necrosis relative to the control of 0.1-50)
- Average of necrosis [1, 36]: B (B represents a percentage inhibition of 50-80)
- Average of necrosis [1, 37]: B (B represents a percentage inhibition of 50-80)
- Average of necrosis [1, 38]: B (B represents a percentage inhibition of 50-80)
- Average of necrosis [2, 4]: C (C represents a percentage increase in necrosis relative to the control of 0.1-50)
- Average of necrosis [2, 5]: C (C represents a percentage increase in necrosis relative to the control of 0.1-50)
- Average of necrosis [2, 6]: C (C represents a percentage increase in necrosis relative to the control of 0.1-50)
- Average of necrosis [2, 7]: C (C represents a percentage increase in necrosis relative to the control of 0.1-50)
- Average of necrosis [2, 8]: C (C represents a percentage increase in necrosis relative to the control of 0.1-50)
- Average of necrosis [2, 9]: C (C represents a percentage increase in necrosis relative to the control of 0.1-50)
- Average of necrosis [2, 10]: C (C represents a percentage increase in necrosis relative to the control of 0.1-50)
- Average of necrosis [2, 11]: C (C represents a percentage increase in necrosis relative to the control of 0.1-50)
- Average of necrosis [2, 12]: C (C represents a percentage increase in necrosis relative to the control of 0.1-50)
- Average of necrosis [2, 13]: C (C represents a percentage increase in necrosis relative to the control of 0.1-50)
- Average of necrosis [2, 14]: C (C represents a percentage increase in necrosis relative to the control of 0.1-50)
- Average of necrosis [2, 15]: C (C represents a percentage increase in necrosis relative to the control of 0.1-50)
- Average of necrosis [2, 16]: C (C represents a percentage increase in necrosis relative to the control of 0.1-50)
- Average of necrosis [2, 17]: C (C represents a percentage increase in necrosis relative to the control of 0.1-50)
- Average of necrosis [2, 18]: C (C represents a percentage increase in necrosis relative to the control of 0.1-50)
- Average of necrosis [2, 19]: C (C represents a percentage increase in necrosis relative to the control of 0.1-50)
- Average of necrosis [2, 20]: C (C represents a percentage increase in necrosis relative to the control of 0.1-50)
- Average of necrosis [2, 21]: C (C represents a percentage increase in necrosis relative to the control of 0.1-50)
- Average of necrosis [2, 22]: C (C represents a percentage increase in necrosis relative to the control of 0.1-50)
- Average of necrosis [2, 23]: C (C represents a percentage increase in necrosis relative to the control of 0.1-50)
- Average of necrosis [2, 24]: C (C represents a percentage increase in necrosis relative to the control of 0.1-50)
- Average of necrosis [2, 25]: C (C represents a percentage increase in necrosis relative to the control of 0.1-50)
- Average of necrosis [2, 26]: C (C represents a percentage increase in necrosis relative to the control of 0.1-50)
- Average of necrosis [2, 27]: C (C represents a percentage increase in necrosis relative to the control of 0.1-50)
- Average of necrosis [2, 28]: C (C represents a percentage increase in necrosis relative to the control of 0.1-50)
- Average of necrosis [2, 29]: C (C represents a percentage increase in necrosis relative to the control of 0.1-50)
- Average of necrosis [2, 30]: C (C represents a percentage increase in necrosis relative to the control of 0.1-50)
- Average of necrosis [2, 31]: C (C represents a percentage increase in necrosis relative to the control of 0.1-50)
- Average of necrosis [2, 32]: C (C represents a percentage increase in necrosis relative to the control of 0.1-50)
- Average of necrosis [2, 33]: C (C represents a percentage increase in necrosis relative to the control of 0.1-50)
- Average of necrosis [2, 34]: C (C represents a percentage increase in necrosis relative to the control of 0.1-50)
- Average of necrosis [2, 35]: C (C represents a percentage increase in necrosis relative to the control of 0.1-50)
- Average of necrosis [2, 36]: C (C represents a percentage increase in necrosis relative to the control of 0.1-50)
- Average of necrosis [2, 37]: C (C represents a percentage increase in necrosis relative to the control of 0.1-50)
- Average of necrosis [2, 38]: C (C represents a percentage increase in necrosis relative to the control of 0.1-50)
- Average of necrosis [3, 4]: C (C represents a percentage increase in necrosis relative to the control of 0.1-50)
- Average of necrosis [3, 5]: C (C represents a percentage increase in necrosis relative to the control of 0.1-50)
- Average of necrosis [3, 6]: C (C represents a percentage increase in necrosis relative to the control of 0.1-50)
- Average of necrosis [3, 7]: C (C represents a percentage increase in necrosis relative to the control of 0.1-50)
- Average of necrosis [3, 8]: C (C represents a percentage increase in necrosis relative to the control of 0.1-50)
- Average of necrosis [3, 9]: C (C represents a percentage increase in necrosis relative to the control of 0.1-50)
- Average of necrosis [3, 10]: C (C represents a percentage increase in necrosis relative to the control of 0.1-50)
- Average of necrosis [3, 11]: C (C represents a percentage increase in necrosis relative to the control of 0.1-50)
- Average of necrosis [3, 12]: C (C represents a percentage increase in necrosis relative to the control of 0.1-50)
- Average of necrosis [3, 13]: C (C represents a percentage increase in necrosis relative to the control of 0.1-50)
- Average of necrosis [3, 14]: C (C represents a percentage increase in necrosis relative to the control of 0.1-50)
- Average of necrosis [3, 15]: C (C represents a percentage increase in necrosis relative to the control of 0.1-50)
- Average of necrosis [3, 16]: C (C represents a percentage increase in necrosis relative to the control of 0.1-50)
- Average of necrosis [3, 17]: B (B represents a percentage inhibition of 50-80)
- Average of necrosis [3, 18]: C (C represents a percentage increase in necrosis relative to the control of 0.1-50)
- Average of necrosis [3, 19]: C (C represents a percentage increase in necrosis relative to the control of 0.1-50)
- Average of necrosis [3, 20]: C (C represents a percentage increase in necrosis relative to the control of 0.1-50)
- Average of necrosis [3, 21]: C (C represents a percentage increase in necrosis relative to the control of 0.1-50)
- Average of necrosis [3, 22]: B (B represents a percentage inhibition of 50-80)
- Average of necrosis [3, 23]: B (B represents a percentage inhibition of 50-80)
- Average of necrosis [3, 24]: B (B represents a percentage inhibition of 50-80)
- Average of necrosis [3, 25]: C (C represents a percentage increase in necrosis relative to the control of 0.1-50)
- Average of necrosis [3, 26]: C (C represents a percentage increase in necrosis relative to the control of 0.1-50)
- Average of necrosis [3, 27]: C (C represents a percentage increase in necrosis relative to the control of 0.1-50)
- Average of necrosis [3, 28]: C (C represents a percentage increase in necrosis relative to the control of 0.1-50)
- Average of necrosis [3, 29]: B (B represents a percentage inhibition of 50-80)
- Average of necrosis [3, 30]: B (B represents a percentage inhibition of 50-80)
- Average of necrosis [3, 31]: B (B represents a percentage inhibition of 50-80)
- Average of necrosis [3, 32]: C (C represents a percentage increase in necrosis relative to the control of 0.1-50)
- Average of necrosis [3, 33]: B (B represents a percentage inhibition of 50-80)
- Average of necrosis [3, 34]: B (B represents a percentage inhibition of 50-80)
- Average of necrosis [3, 35]: B (B represents a percentage inhibition of 50-80)
- Average of necrosis [3, 36]: B (B represents a percentage inhibition of 50-80)
- Average of necrosis [3, 37]: B (B represents a percentage inhibition of 50-80)
- Average of necrosis [3, 38]: B (B represents a percentage inhibition of 50-80)
